Reference: patent publication US8192962B2, “Processes for detecting toxic substances” (Daikin Industries, Ltd., priority 2001, dated 2012)

Test system: Genes belonging to other category
Assay: DNA chip mRNA expression in yeast, genes belonging to other category (Table 9)
Type: cell-based, Saccharomyces cerevisiae S288C
Summary of the method: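 Measured as treated-to-untreated fluorescence ratio on a full-genome yeast DNA chip. Cells (S288C, YPD, 25° C.) were exposed in log phase for two hours to one chemical, dosed to curb growth without killing.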

## C=CC=O [(14), acrolein]
Yeast gene YAL055W
  The level of expressed mRNA in the presence of chemical substance/The level of expressed mRNA in the absence of chemical substance: 1.6
Yeast gene YAR009C
  The level of expressed mRNA in the presence of chemical substance/The level of expressed mRNA in the absence of chemical substance: 1.0
Yeast gene YAR010C
  The level of expressed mRNA in the presence of chemical substance/The level of expressed mRNA in the absence of chemical substance: 1.0
Yeast gene YAR062W
  The level of expressed mRNA in the presence of chemical substance/The level of expressed mRNA in the absence of chemical substance: 1.1
Yeast gene YBL005W-A
  The level of expressed mRNA in the presence of chemical substance/The level of expressed mRNA in the absence of chemical substance: 1.4
Yeast gene YBL041W
  The level of expressed mRNA in the presence of chemical substance/The level of expressed mRNA in the absence of chemical substance: 2.0
Yeast gene YBL043W
  The level of expressed mRNA in the presence of chemical substance/The level of expressed mRNA in the absence of chemical substance: 1.9
Yeast gene YBL078C
  The level of expressed mRNA in the presence of chemical substance/The level of expressed mRNA in the absence of chemical substance: 3.6
Yeast gene YBL101W-A
  The level of expressed mRNA in the presence of chemical substance/The level of expressed mRNA in the absence of chemical substance: 1.5
Yeast gene YBL102W
  The level of expressed mRNA in the presence of chemical substance/The level of expressed mRNA in the absence of chemical substance: 1.1
Yeast gene YBR010W
  The level of expressed mRNA in the presence of chemical substance/The level of expressed mRNA in the absence of chemical substance: 1.0
Yeast gene YBR026C
  The level of expressed mRNA in the presence of chemical substance/The level of expressed mRNA in the absence of chemical substance: 1.5
Yeast gene YBR139W
  The level of expressed mRNA in the presence of chemical substance/The level of expressed mRNA in the absence of chemical substance: 1.1
Yeast gene YBR170C
  The level of expressed mRNA in the presence of chemical substance/The level of expressed mRNA in the absence of chemical substance: 1.3
Yeast gene YBR173C
  The level of expressed mRNA in the presence of chemical substance/The level of expressed mRNA in the absence of chemical substance: 3.0
Yeast gene YBR177C
  The level of expressed mRNA in the presence of chemical substance/The level of expressed mRNA in the absence of chemical substance: 1.3
Yeast gene YBR214W
  The level of expressed mRNA in the presence of chemical substance/The level of expressed mRNA in the absence of chemical substance: 0.9
Yeast gene YBR239C
  The level of expressed mRNA in the presence of chemical substance/The level of expressed mRNA in the absence of chemical substance: 1.1
Yeast gene YBR286W
  The level of expressed mRNA in the presence of chemical substance/The level of expressed mRNA in the absence of chemical substance: 1.5
Yeast gene YBR290W
  The level of expressed mRNA in the presence of chemical substance/The level of expressed mRNA in the absence of chemical substance: 1.4
Yeast gene YCL020W
  The level of expressed mRNA in the presence of chemical substance/The level of expressed mRNA in the absence of chemical substance: 1.7
Yeast gene YCL027W
  The level of expressed mRNA in the presence of chemical substance/The level of expressed mRNA in the absence of chemical substance: 1.2
Yeast gene YCR004C
  The level of expressed mRNA in the presence of chemical substance/The level of expressed mRNA in the absence of chemical substance: 3.7
Yeast gene YCR062W
  The level of expressed mRNA in the presence of chemical substance/The level of expressed mRNA in the absence of chemical substance: 1.0
Yeast gene YCR069W
  The level of expressed mRNA in the presence of chemical substance/The level of expressed mRNA in the absence of chemical substance: 1.0
Yeast gene YCR071C
  The level of expressed mRNA in the presence of chemical substance/The level of expressed mRNA in the absence of chemical substance: 1.7
Yeast gene YCR088W
  The level of expressed mRNA in the presence of chemical substance/The level of expressed mRNA in the absence of chemical substance: 0.9
Yeast gene YDL008W
  The level of expressed mRNA in the presence of chemical substance/The level of expressed mRNA in the absence of chemical substance: 2.2
Yeast gene YDL018C
  The level of expressed mRNA in the presence of chemical substance/The level of expressed mRNA in the absence of chemical substance: 1.5
Yeast gene YDL137W
  The level of expressed mRNA in the presence of chemical substance/The level of expressed mRNA in the absence of chemical substance: 1.4
Yeast gene YDL238C
  The level of expressed mRNA in the presence of chemical substance/The level of expressed mRNA in the absence of chemical substance: 1.2
Yeast gene YDR055W
  The level of expressed mRNA in the presence of chemical substance/The level of expressed mRNA in the absence of chemical substance: 0.9
Yeast gene YDR084C
  The level of expressed mRNA in the presence of chemical substance/The level of expressed mRNA in the absence of chemical substance: 1.0
Yeast gene YDR085C
  The level of expressed mRNA in the presence of chemical substance/The level of expressed mRNA in the absence of chemical substance: 1.6
Yeast gene YDR104C
  The level of expressed mRNA in the presence of chemical substance/The level of expressed mRNA in the absence of chemical substance: 1.4
Yeast gene YDR115W
  The level of expressed mRNA in the presence of chemical substance/The level of expressed mRNA in the absence of chemical substance: 1.5
Yeast gene YDR125C
  The level of expressed mRNA in the presence of chemical substance/The level of expressed mRNA in the absence of chemical substance: 1.0
Yeast gene YDR168W
  The level of expressed mRNA in the presence of chemical substance/The level of expressed mRNA in the absence of chemical substance: 1.4
Yeast gene YDR259C
  The level of expressed mRNA in the presence of chemical substance/The level of expressed mRNA in the absence of chemical substance: 1.5
Yeast gene YDR304C
  The level of expressed mRNA in the presence of chemical substance/The level of expressed mRNA in the absence of chemical substance: 1.7
Yeast gene YDR315C
  The level of expressed mRNA in the presence of chemical substance/The level of expressed mRNA in the absence of chemical substance: 1.4
Yeast gene YDR358W
  The level of expressed mRNA in the presence of chemical substance/The level of expressed mRNA in the absence of chemical substance: 1.2
Yeast gene YDR373W
  The level of expressed mRNA in the presence of chemical substance/The level of expressed mRNA in the absence of chemical substance: 2.1
Yeast gene YDR378C
  The level of expressed mRNA in the presence of chemical substance/The level of expressed mRNA in the absence of chemical substance: 1.4
Yeast gene YDR388W
  The level of expressed mRNA in the presence of chemical substance/The level of expressed mRNA in the absence of chemical substance: 0.6
Yeast gene YDR403W
  The level of expressed mRNA in the presence of chemical substance/The level of expressed mRNA in the absence of chemical substance: 1.1
Yeast gene YDR427W
  The level of expressed mRNA in the presence of chemical substance/The level of expressed mRNA in the absence of chemical substance: 1.0
